Data on two substances can be found in patent US20150105329A1, “Methods and Pharmaceutical Compositions for Prevention or Treatment of Ischemia Related Organ Damage” (INSERM (Institut National de la Sante et de la Recherche …, priority 2012, published 2015).

In experiment [1] the test system is myocardial ischemia/reperfusion injury. Briefly: Myocardial ischemia/reperfusion injury, infarct size. It counts as in vivo, C57/Bl6J mice. Particulars: for decrease of infarct size vs saline: 30 min ischemia, 3 h reperfusion, p<0.05 vs saline. As to the method: Adult C57/Bl6J mice of 12-15 weeks old (20-30 g) were anesthetized with sodium pentobarbital (60 mg/kg, i.p.). The animals were intubated and ventilated with 100% oxygen (200 μl/breath at a rate of 170 breaths/min), using a Harvard rodent ventilator (Model 845, Harvard Apparatus, Les Ulis, France). Body temperature was monitored with a rectal probe connected to a digital thermometer, and maintained at 37° C. using a heating pad. A catheter was inserted into the jugular vein for bolus injection of drug (0.01 ml/10 g BW, 10-20 sec). The electrocardiogram (ECG) was recorded throughout the experiments on a Gould TA240 recorder (ECG biotech; Gould Instruments, Cleveland, Ohio, USA). A left thoracotomy was performed to expose the heart, and the pericardium was removed. The left anterior descending coronary artery was occluded with an 8.0 prolene suture, 2 mm from the tip of the left atrium for 30 min. Successful coronary occlusion was verified by the development of a pale color in the distal myocardium and by ST segment elevation and QRS widening on the ECG. After 30 min of sustained ischemia, coronary blood flow was restored by loosening the suture. Successful reperfusion was confirmed by visualization of hyperaemic response and restoration of normal ECG. The lungs were then reinflated by increasing positive end expiratory pressure, and the chest was closed. Reperfusion was maintained for a 3-h period. Drugs dissolved in isotonic saline were injected 5 minutes before reperfusion. B2 receptor agonist was administrated at different non hypotensive dosages as defined in preliminary experiments. To ensure the role of specific activation of B2 receptor, B2 agonist was tested with pretreatment by B2R antagonist (HOE140). After reperfusion, the chest was reopened, the coronary artery was reoccluded, and 0.5 ml of a 5% Evans blue solution was injected as a bolus into the jugular vein in order to delineate the area at risk (AR), which remained unstained by the Evans blue. The heart was excised, and the left ventricle (LV) was isolated, weighed, and sliced into 4 transverse pieces from base to apex, the first cutter blade being positioned at the site of the coronary occlusion. The slices were weighed, and color digital images of both sides of each slice were obtained with a Power Shot S50 zoom digital camera (Canon, Tokyo, Japan) connected to a microscope (Leica M Z 75; Leica Microsystems, Rueil-Malmaison, France), using the Adobe Photoshop software (Adobe Systems, San Jose, Calif., USA). The slices were then incubated at 37° C. with buffered 1% 2,3,5-triphenyltetrazolium chloride (TTC) solution for 20 min. Viable myocardium, which contained dehydrogenases, reacted with TTC and was stained brick red, whereas any necrotic tissue remained unstained due to the lack of active enzymes. The tissue sections were then fixed in a buffered 10% formalin solution for 24 h before being photographed again to delineate the IS. The cross-sectional area, the lumen area, the AR (unstained by Evans blue), and IS (unstained by TTC) of the LV were outlined on each color image and quantified by a masked observer using the Scion Image software (Scion Image for Windows; http://www.scioncorp.com). The absolute weights of AR and IS were then calculated for each slice. The sum of the absolute weight values of AR and IS of the 3 ischemic slices of each heart was calculated and expressed as a percentage of the total weight of the slice. The ratio of IS to AR was calculated from these absolute weight evaluations and expressed as a percentage of AR.

In experiment [2] the test system is hindlimb ischemia in streptozotocin-diabetic mice. Description: Peripheral (hindlimb) ischemia in diabetic mice, neovascularization. It counts as in vivo, C57BL/6J mice. As to the method:
Two-to three-month-old male C57BL/6J mice were used. Type 1 diabetes was induced by 5 daily ip injections of low-dose of streptozotocin (50 mg/kg dissolved in 0.05M sodium citrate buffer, pH 4.5). Ischemia of hinlimb was induced by permanent ligation of the right femoral artery once the diabetes is established (hyperglycemia >300 mg/dl, 4 weeks after streptozocin injections). Mice were anesthetized by isoflurane inhalation (0.8% in oxygen stream) and the proximal part of the femoral artery just below the origin of the circumflexa femoris lateralis was occluded with a silk suture. Concomitantly with the surgery, half the mice was treated with the B2 agonist (30 nmol/kg·h^−1), infused continuously through osmotic minipumps implanted subcutaneously. The other half of the mice was infused with the vehicle (isotonic saline). Healthy mice, non diabetic without ischemia were used as control.
Two weeks after the onset of ischemia, neovascularization was evaluated by two methods. —Arteries were quantified by high definition microangiography using barium sulfate and digital X-ray transducer. Mice were anesthetized (Pentobarbital injection, 60 mg/kg, I.P.) and longitudinal laparatomy was performed to introduce a polyethylene catheter into the abdominal aorta to inject contrast medium (Barium sulfate, 1 mg/ml). Images (two per animal) were acquired using a high-definition digital X-ray transducer. Vessel density was expressed as a percentage of pixels per image occupied by vessel density in the quantification area. —Capillary density was analyzed by immunohistochemistry using fibronectin-FITC antibody. Frozen tissue sections (7 μm) from calf muscle were incubated with rabbit polyclonal antibody directed against total fibronectin (dilution 1:50) to identify capillaries. The number of capillary by field was determined in both ischemic and nonischemic legs. Results are expressed as ischemic to nonischemic ratio.

Experiment [3] concerns the target T1, hB2R (Homo sapiens, UniProt P30411).
T1 sequence (P30411 1-391): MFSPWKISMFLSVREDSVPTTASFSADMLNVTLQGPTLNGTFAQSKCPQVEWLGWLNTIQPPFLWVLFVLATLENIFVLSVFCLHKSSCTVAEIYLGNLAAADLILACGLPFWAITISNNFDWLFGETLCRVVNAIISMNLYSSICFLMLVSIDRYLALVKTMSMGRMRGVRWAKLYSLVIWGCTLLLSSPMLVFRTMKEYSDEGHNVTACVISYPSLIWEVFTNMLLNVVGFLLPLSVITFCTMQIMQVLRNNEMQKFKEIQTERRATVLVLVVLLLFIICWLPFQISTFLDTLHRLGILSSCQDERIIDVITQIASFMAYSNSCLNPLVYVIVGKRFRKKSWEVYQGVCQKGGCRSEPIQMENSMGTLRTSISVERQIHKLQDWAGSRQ
As to conditions: naturally expressed and recombinant hB2R; cited from earlier work.

The conditions of experiment [4]: cited from earlier work.
Experiment [5] has as its target T1, hB2R. Particulars: naturally expressed and recombinant hB2R; cited from earlier work. This is another data set of the same source.
The mark [6] stands for this setting: 30 nmol/kg·h s.c. osmotic minipump, 14 days of ischemia.

With HOE140, the “effect on infarct size” value in experiment [1] (antagonist given alone) is “no effect on infarct size”. The “effect on cardioprotection by B2 agonist” value in experiment [1] (pretreatment with B2R antagonist before B2 agonist) was “suppressed the cardioprotective effect of B2 agonist”.

For “[Hyp(3), Thi(5), (N)Chg(7), Thi(8)]-BK [peptide 20]”, the angiographic score result in experiment [2] (setting [6]) is reported as “increase”. Also, in experiment [2] (setting [6]), the capillary density entry was “increase”. Moreover, in experiment [2] (chronic administration 30 nmol/kg·h, FIG. 2), the angiogenic effect result was “proangiogenic effect”. For the same substance, the “in vitro potencies compared with bradykinin” value in experiment [3] was “greater”. Also, the “potency and duration of action in vivo compared with bradykinin” value in experiment [4] is on record as “highly superior to bradykinin”. Besides, the “decrease of infarct size vs saline” value in experiment [1] (0.01 nmol/kg i.v. bolus 5 min before reperfusion) is −37.2%; in experiment [1] (0.1 nmol/kg i.v. bolus 5 min before reperfusion) it was −47.3%; in experiment [1] (0.3 nmol/kg i.v. bolus 5 min before reperfusion), −35.6%. Also, the “infarct size relative to area at risk” value in experiment [1] (acute administration, FIG. 1) is “Reducing effect”. Also, the “in vitro affinities compared with bradykinin” value in experiment [5] was “greater”.
